The text below walks through data of publication PMC11219945, “Assessing genotoxic effects of chemotherapy agents by a robust in vitro assay based on mass spectrometric quantification of γ-H2AX in HepG2 cells” (Frontiers in Pharmacology, 2024).

Series [1] concerns γ-H2AX in HepG2 cells. The series is described as follows: γ-H2AX time-effect relationship / DNA repair kinetics (k, t50) in HepG2 cells. It counts as cell-based, Human. Also noted: k (speed of γ-H2AX descending): unit not given here. To be noted: 100 μM, 0.5–8 h time-dependent kinetics. As to the method:
The cells were then treated with different chemotherapy agents in serum-free medium. […] Independent biological experiments with three technical replicates were performed.
(§1) In short, the cell clumps were collected after a certain period of cell culture and histones were obtained by acid extraction. After nuclear isolation, histone extraction, trypsin digestion in the solution, and desalting, the peptide sample from the carboxy terminus of H2AX was analyzed. LC–MS/MS analysis was conducted using a QTRAP 5500 (AB Sciex, Framingham, United States) with an ACQUITY UPLC system (Waters Co., Manchester, United Kingdom). Chromatographic separation was carried out with an ACQUITY UPLC BEH C18 column (100 mm × 2.1 mm, 1.7 μm). The column temperature was maintained at 40°C. A 10 μL sample aliquot was injected for analysis. Mobile phases A and B were 0.1% FA in distilled H2O and acetonitrile, respectively. […] The eluent composition was maintained for 2 min, after which the system returned to 1% B and was re-equilibrated for 2 min. The eluates in the first 1 min were switched to waste to prevent contaminating the ion source. The electrospray ionization source was operated in positive mode using nitrogen as the nebulizing gas. All experiments were performed independently in at least triplicate.
Here, we estimated k and t50 after exposure to nine representative chemotherapy agents based on the 0.5–8 h γ-H2AX time-dependent kinetics (Figure 5) and then obtained these parameters to describe each agent DSB repair capacity using the functions optim and optimize in R language.

For series [2] the following is noted: combination of in vitro mouse lymphoma, chromosomal aberration, and micronucleus tests; cited from earlier work.
Details of series [3]: method as in earlier work. To be noted: ref IARC; cited from earlier work.
Series [4] relates to γ-H2AX in HepG2 cells. The series is described as follows: γ-H2AX MS assay, dose-effect relationship in HepG2 cells. To be noted: for maximum γ-H2AX value within the selected concentration range: 24 h; for γ-H2AX MEC/MS (minimum effective concentration): 24 h exposure. As to the method:
Human hepatoblastoma cells (HepG2) were cultivated in DMEM medium under standard conditions (37°C in a 5% CO2 atmosphere). The culturing medium was added with 10% FBS, 100 U/mL penicillin and 100 μg/mL streptomycin.
In accordance to our previous study, cells were exposed to the chemotherapeutic agent by adding a proper volume of chemotherapeutic agent stock solution to the fresh medium without serum. Controls were treated with DMSO (0.1%) in medium. Independent biological experiments with three technical replicates were conducted.
The cells were then treated with different chemotherapy agents in serum-free medium. For a dose-effect relationship experiment, cells were exposed to each agent at either of three concentrations with a 10-fold increase for 24 h. For the time-effect relationship experiment of nine tested chemotherapy agents, cells were exposed to selected chemotherapy agents at 0.5, 1, 2, 4, 8, 12, and 24 h, with the concentration of 100 μM. Independent biological experiments with three technical replicates were performed.
as §1, with “The quantification of γ-H2AX was carried out according to the previous report ([Qu et al., 2021]). In” for “In”
To this end, we firstly examined the cytotoxicity of 34 chemotherapy agents, all of which were already well classified in terms of diverse characteristics. These tested chemotherapy agents were serially diluted for exposure to check the effects on cell viability.

As for `COc1cccc2c1C(=O)c1c(O)c3c(c(O)c1C2=O)C[C@@](O)(C(C)=O)C[C@@H]3O[C@H]1C[C@H](N)[C@H](O)[C@H](C)O1` [Daunorubicin], in the series with γ-H2AX in HepG2 cells [1], the “k (speed of γ-H2AX descending)” value is recorded as 0.139 and the “t50 (time required for γ-H2AX to drop to half of the maximum value)” value is reported as 3.344 h. Also, in series [2], the “In vitro assays (genotoxicity)” value was “+”. Further, in series [3], the IARC classification group is 2B. The “maximum γ-H2AX value within the selected concentration range” value with γ-H2AX in HepG2 cells [4] (human) was determined as 23.

Take `COc1cccc2c1C(=O)c1c(O)c3c(c(O)c1C2=O)C[C@@](O)(C(=O)CO)C[C@@H]3O[C@H]1C[C@H](N)[C@H](O)[C@H](C)O1` [Doxorubicin]: in the series on γ-H2AX in HepG2 cells [1], the “k (speed of γ-H2AX descending)” value worked out at 0.088 and the “t50 (time required for γ-H2AX to drop to half of the maximum value)” value came out at 4.269 h. For the same compound, the “In vitro assays (genotoxicity)” value in series [2] was “+”. Besides, the IARC classification group in series [3] is 2A. In the series with γ-H2AX in HepG2 cells [4] (human), the “maximum γ-H2AX value within the selected concentration range” value was determined as 21.

Consider `CC[C@@]1(O)C(=O)OCc2c1cc1n(c2=O)Cc2cc3c(CN(C)C)c(O)ccc3nc2-1` [Topotecan], for which, in the series with γ-H2AX in HepG2 cells [1], the “k (speed of γ-H2AX descending)” value came out at 0.132 and the “t50 (time required for γ-H2AX to drop to half of the maximum value)” value is reported as 3.545 h. Moreover, in series [2], the “In vitro assays (genotoxicity)” value is recorded as “+”. The “maximum γ-H2AX value within the selected concentration range” value with γ-H2AX in HepG2 cells [4] (human) amounted to 18.4.

As to Deoxyfluridine, in the series on γ-H2AX in HepG2 cells [1], the “k (speed of γ-H2AX descending)” value is recorded as 4.157 and the “t50 (time required for γ-H2AX to drop to half of the maximum value)” value came to 1.201 h. Moreover, the “In vitro assays (genotoxicity)” value in series [2] is given as “+”. In addition, in the series with γ-H2AX in HepG2 cells [4] (HepG2 cells, 100 μM of exposure concentration), the “value of γ-H2AX” value worked out at 8.4. Also, in the series with γ-H2AX in HepG2 cells [4] (HepG2 cells), the “maximum γ-H2AX value within the selected concentration range” value is listed as 8.4 and the “γ-H2AX MEC/MS (minimum effective concentration)” value is on record as “↑(10) µM”. Moreover, the “γ-H2AX MEC/MS (minimum effective concentration)” value with γ-H2AX in HepG2 cells [4] (HepG2 cells, listed as deoxyfluridine) is 10 µM.
